Experimental data from patent publication US9352004B2, “Muscle-derived cells (MDCs) for treating muscle- or bone-related injury or dysfunction” (University of Pittsburgh—Of the Commonwealth System of …, priority 1998, dated 2016).
“Also recorded” adds a separate entry of the source. Marks after values point to notes of the source that are not given here.

What was measured:
[1] = tested on: myoblasts; test: Effect of growth factors on myoblast proliferation and fusion in vitro; type: cell-based; conditions: 1, 10 and 100 ng/ml, 48 and 96 hours
Procedure: Several growth factors, including acidic and basic fibroblast growth factors (aFGF and bFGF); epidermal growth factor (EGF); insulin-like growth factor-1 (IGF-1); platelet derived growth factor (PDGF); transforming growth factor β or α (TGF-β or TGF-α); and nerve growth factor (NGF) have been investigated for their ability to enhance the myogenic activity of muscle cells in vitro. Myoblasts were cultured with these trophic factors at different concentrations (1, 10 and 100 ng/ml), and the myoblast proliferation and differentiation were monitored at 48 and 96 hours post-incubation.

[2] = tested on: injured muscle; test: Muscle healing and twitch/tetanic strength in vivo after muscle contusion, laceration or strain; set-up: species or system mouse; key to twitch strength / tetanic strength: (+) improvement in strength vs. non-injected muscles; (−) no improvement in strength vs. non-injected muscles; conditions: for number of regenerating myofibers in vivo: direct injection into injured muscle (laceration, contusion, strain)
Procedure: Briefly, the muscle laceration was performed by cutting the gastrocnemius muscle of a mouse with scissors at 60% of its length from its distal insertion, 75% of its width, and 50% of its thickness. The muscle contusion was made by dropping a 16 gram ball through an impactor from a height of 100 centimeters onto the mouse's gastrocnemius muscle, and the muscle strain was performed by elongating the muscle-tendon unit to a pre-determined strain point at the rate of 1 cm/min.
In order to evaluate muscle healing following injury, histological staining (hematoxylin-eosin) in conjunction with immunohistochemical techniques were employed to assess the expression of desmin and vimentin. Since desmin is a cytoskeletal protein uniformly expressed in regenerating myofibers, it has been used to specifically locate regenerating myofibers. Vimentin is expressed in mononucleated fibrocytes and macrophages and has been used herein as a marker for fibrosis. […]

[3] = tested on: meniscal fibrochondrocytes; test: Growth factors on meniscal fibrochondrocytes in vitro; type: cell-based; conditions: for expression of collagen and non-collagen proteins: meniscal fibrochondrocytes
From the text: In vitro data detail the effects of numerous growth factors on fibroblast proliferation and collagen production.

[4] = tested on: urethral smooth muscle; test: Intraurethral NO donors: urethral perfusion pressure and isovolumetric bladder pressure; conditions: rat, in vivo, iv
Procedure: To first assess the role of NO donors on smooth muscle, urethral perfusion pressure and isovolumetric bladder pressure were measured with catheters inserted through the bladder dome in urethane anesthetized female S.D. rats (250-300 grams), (n=9). The catheter assembly was wedged in the bladder neck to block passage of fluid between the bladder and urethra without affecting the nerve supply to the organs. The external urethra was not catheterized. Responses were examined in the control state at an urethral saline infusion speed of 0.075 ml/min. After blocking striated urethral sphincter with intravenous alpha-bungarotoxin administration (100 mcg/kg), intraurethral drugs were administered.

[5] = tested on: bladder; conditions: rat, in vivo
Procedure: Micturition Pattern Measurement: Urination pattern profiles were obtained using a specialized metabolic cage which deflects voided urine for collection and quantification over a 24 hour period. Micturition parameters evaluated in the described experiments included total urine output/24 hours, number of micturitions/24 hours and mean volume per micturition (M. D. Chancellor et al., 1994, J. Urol., 151:250-254; T. Watanabe et al., 1996, J. Urol., 156:1507-1510).
To first assess the role of intravesicle NO on cyclophosphamide-induced cystitis, female S.D. rats received a single intraperitoneal injection of CYP (100 mg/kg) or vehicle. Voiding parameters (mean voided volume and number of voids) were then monitored for 24 hours in a metabolic cage. Forty-eight hours after CYP injection, bladder function was studied using continuous saline infusion (0.04 ml/min) cystometry via PE-50 transurethral catheter under urethane anesthesia.

[6] = tested on: bladder wall; type: in vivo, rat; conditions: 100 μM TBH4, control areas of the bladder
Procedure: For gene therapy experiments, myoblasts were transduced with the adenovirus containing the human inducible nitric oxide synthase (iNOS) gene at a multiplicity of infection of 50 (MOI=50) and were injected into the bladder and studied after 2 to 7 days.
The bladder was injected with a similar solution; however, the cell concentration ranged from 1.33×10^5 to 1×10^6 cells per 10 μl injection. Transduced myoblasts were prepared by incubating them for 24 hours with adenovirus vector containing the iNOS gene at a multiplicity of infection of 50 virus particles per cell. Immunohistochemical staining was performed on the cultured cells to ensure adequate infection and iNOS protein production.
NO release in the bladder and penis was measured by placing the tip of a Naflon-coated porphyrinic microsensor (dia. 10 μM; detection limit, 5 nM; response time, 1 ms) directly on the bladder surface (mucosal and serosal) and on the corporal cavernosum, respectively.

Molecule: IGF: insulin-like growth factor-1
- Fusion (differentiation into myotubules) [1]: Stimulate
- Proliferation [1]: Stimulate
- Fusion (differentiation into myotubules) ([1]; listed as IGF-1): increase myoblast differentiation into myotubules
- Proliferation ([1]; listed as IGF-1): significantly enhanced
- tetanic strength ([2]; Muscle contusion): +/+
- twitch strength ([2]; Muscle contusion): +/+
- tetanic strength ([2]; Muscle laceration): +/+
- twitch strength ([2]; Muscle laceration): +/+
- tetanic strength ([2]; Muscle strain): +/+
- twitch strength ([2]; Muscle strain): +/+
- number of regenerating myofibers in vivo [2]: increase the number of regenerating myofibers

Molecule: EGF: epidermal growth factor
- proliferation of the meniscal fibrochondrocytes [3]: improve
- expression of collagen and non-collagen proteins [3]: improve
- Fusion (differentiation into myotubules) [1]: Inhibit
- Proliferation [1]: Inhibit

Molecule: alpha-bungarotoxin
- high frequency oscillations of urethral pressure [4]: abolished

Molecule: b-FGF: basic fibroblast growth factor
- proliferation of the meniscal fibrochondrocytes [3]: improve
- expression of collagen and non-collagen proteins [3]: improve
- Fusion (differentiation into myotubules) [1]: Stimulate
- Proliferation [1]: significantly enhanced; also recorded: Stimulate
- Fusion (differentiation into myotubules) ([1]; listed as bFGF): increase myoblast differentiation into myotubules
- tetanic strength ([2]; Muscle contusion): +/+
- twitch strength ([2]; Muscle contusion): +/+
- tetanic strength ([2]; Muscle laceration): +/+
- twitch strength ([2]; Muscle laceration): +/+
- tetanic strength ([2]; Muscle strain): +/+
- twitch strength ([2]; Muscle strain): +/+
- number of regenerating myofibers in vivo [2]: increase the number of regenerating myofibers

Molecule: O=P1(N(CCCl)CCCl)NCCCO1 (stereo not shown) [CYP, cyclophosphamide]
- number of micturitions during the 24 hours after CYP injection [5]: 117±86
- total micturition volume [5]: 20.5 ± 9.2 mL
- voiding frequency after 7 days [5]: 38±4

Molecule: NGF: nerve growth factor
- Fusion (differentiation into myotubules) [1]: increase myoblast differentiation into myotubules; also recorded: Stimulate
- Proliferation [1]: significantly enhanced; also recorded: Stimulate
- tetanic strength ([2]; Muscle contusion): +/+*
- twitch strength ([2]; Muscle contusion): +/+*
- tetanic strength ([2]; Muscle laceration): −/−
- twitch strength ([2]; Muscle laceration): −/−
- tetanic strength ([2]; Muscle strain): −
- twitch strength ([2]; Muscle strain): +
- number of regenerating myofibers in vivo [2]: increase the number of regenerating myofibers

Molecule: TGF-β
- Fusion (differentiation into myotubules) [1]: Inhibit
- Proliferation [1]: Inhibit

Molecule: C[C@H](O)[C@H](O)[C@H]1CNc2nc(N)[nH]c(=O)c2N1 [TBH4, tetrahydrobiopterin]
- duration of NO release spike [6]: < 5 s
- spike in NO release [6]: 1 to 5 nM

Molecule: PDGF
- proliferation of the meniscal fibrochondrocytes [3]: improve
- expression of collagen and non-collagen proteins [3]: improve
- Fusion (differentiation into myotubules) [1]: Inhibit
- Proliferation [1]: Inhibit

Molecule: TGF-α: transforming growth factor α
- proliferation of the meniscal fibrochondrocytes [3]: improve
- expression of collagen and non-collagen proteins [3]: improve
- Fusion (differentiation into myotubules) [1]: Inhibit
- Proliferation [1]: Inhibit

Molecule: a-FGF: acidic fibroblast growth factor
- Fusion (differentiation into myotubules) [1]: Stimulate
- Proliferation [1]: Inhibit
- Fusion (differentiation into myotubules) ([1]; listed as aFGF): increase myoblast differentiation into myotubules
